Laboratory results reported in patent publication US12042507B2, “Compositions and methods of modulating HIF-2A to improve muscle generation and repair” (University of Georgia Research Foundation, Inc., priority 2017, dated 2024).
“Also recorded” adds a separate entry of the source.

Legend:
[1] = target: HIF-1 (Homo sapiens, UniProt Q16665); settings: selectivity for the HIF-2 isoform; cited from earlier work
[2] = tested on: HIF-2; settings: living cells; cited from earlier work
[3] = target: HIF-2α PAS-B (Homo sapiens, UniProt Q99814); settings: binds within the internal cavity of HIF-2α PAS-B; cited from earlier work
[4] = tested on: CTX-injured TA muscles; assay: Muscle regeneration after CTX-induced injury, intramuscular HIF-c2; settings: for total number of Pax7+ SCs per TA muscle section: vs DMSO
Experimental: To induce Cre activity in mice with the Pax7^cre/ERT2 allele, tamoxifen (20 mg/ml in corn oil) was intraperitoneally administrated for 3 consecutive days (100 mg/Kg/day). To assess myofiber damage, 1% Evan's blue (4 ml/Kg in saline) was intraperitoneally administrated 1 day before the euthanasia. To trace proliferative cells, EdU (50 mg/Kg in DMSO) was intraperitoneally administrated 1 day before the euthanasia. For CTX-induced muscle injury, CTX (0.5 nmol in saline) was injected into TA muscle.
For staining muscle sections, muscle sections were fixed with 2% paraformaldehyde (PFA)/PBS for 10 mins, quenched with 50 mM glycine for 10 mins, permeabilized with 0.5% Triton X-100 for 10 mins. To reduce background fluorescence due to endogenous mouse IgG, Mouse on Mouse (M.O.M.) Blocking Reagent (Vector Lab) was used according to the manufactures' instruction. Muscle sections were blocked in 5% BSA/5% normal goat serum in PBS for 1 hr and incubated with primary antibodies: anti-Pax7 (1:5; DSHB), anti-HIF-2α (1:250; Novus Bio.), anti-HIF-1α (1:250; Novus Bio.), anti-Ki67 (1:1,000; Abcam), anti-Laminin B2 (1:1,000; Milipore), anti-embryonic MyHC (1:50, DSHB), anti-MyHC type I, IIA, or IIB (1:50, DSHB) overnight at 4° C. For EdU staining, Click-iT EdU Fluorescence Kit (Life technologies) was used according to the manufactures' instruction before the application of primary antibodies. Muscle sections were washed in PBS with 0.1% Tween-20, incubated with Alexa Fluor dye-labeled secondary antibodies at room temperature for 1 hr and washed. Sections were mounted with DAPI-containing mounting medium (Life technologies).
Peak isometric torque of the ankle dorsiflexors (tibialis anterior, extensor digitorum longus and extensor hallicus longus muscles) was assessed in vivo as previously described (47). Briefly, mice were anaesthetized with 1.75% isoflurane mixed with oxygen. The left hindlimb was depilated and aseptically prepared before the foot was placed into a foot plate attached to a servomoter (Model 300C-LR; Aurora Scientific, Aurora, Ontario, Canada). Two Pt-Ir electrode needles (Model E2-12; Grass Technologies, West Warwick, RI, USA) were inserted percutaneously on either side of the peroneal nerve. The ankle joint was secured at a 90° angle and body temperature was maintained at 37° C. throughout functional testing. Peak isometric torque was achieved by varying the current delivered to the peroneal nerve at a frequency of 200 Hz and a 0.1-ms square wave pulse. Torques (Nomm) were normalized by the body mass (kg^−1) to account for differences in body size among mice. Following peak isometric torque measurements, the dorsiflexors were subject to 100 electronically stimulated eccentric contractions in order to induce injury. During each contraction the foot was passively moved from the 0° position (perpendicular to tibia) to 20° of dorsiflexion. The dorsiflexors were stimulated at 200 Hz for a 100-ms isometric contraction followed by an additional 50 ms of stimulation while moving from 20° dorsiflexion to 20° plantarflexion at an angular velocity of 800°/s. Eccentric contractions were repeated every 10 seconds and the entire protocol lasted about […].
Muscle sections were stained with Sirius red solution (0.1% in picric acid) for 15 mins, washed with 1% acetic acid for 3 times. Sections were mounted with Cytoseal™ 60 mounting medium (Thermo Fisher Scientific), followed with imaging.
To investigate effects of HIF-2α inhibition on muscle regeneration, HIF-c2 or the carrier solution (1% DMSO) was administered into CTX-injured TA muscles of C57BL/6 mice (daily injections between 1-5 dpi; FIG. 5A). EdU was administrated in the same mice to trace cell proliferation.

[5] = tested on: tibialis anterior (TA) muscles of mTR/Mdx mice; assay: Intramuscular HIF-C2 in dystrophic TA muscle of mTR/Mdx mice; assay type: in vivo
Experimental: To reveal the potential therapeutic effects of HIF-2α inhibition on muscular dystrophy, the HIF-2α inhibitor HIF-C2 was intramuscularly injected (5 mg/injection; total 3 doses on day 1, day 4, and day 7) into tibialis anterior (TA) muscles of mTR/Mdx mice (2nd generation; males: n=3 and females: n=3; 16-week old). The contralateral TA muscles received vehicle (0.1% DMSO) injections followed the same injection regime. HIF-C2 and vehicle-treated TA muscles were collected for histological examinations at 28 days after the first treatment.
To investigate whether HIF-C2 improves satellite cell function in mTR/Mdx mice, Pax7 (the definitive marker of satellite cells) and Ki67 (a proliferation marker) immunostaining were carried out on muscle cross-sections and the number of Pax7+pos cells (total number of satellite cells) and Pax7+pos/Ki67+pos cells (proliferative satellite cells) per muscle section were enumerated.
Muscle fibrosis is one of the characteristic pathological changes of Duchenne muscular dystrophy (Klingler et al., Acta Myol 31, 184-195 (2012)). […] Thus, Masson's trichrome staining was performed to reveal the amount of collagen in endomysium.

[6] = target: full-length HIF-2 transcription factor (Homo sapiens, UniProt Q99814); settings: cited from earlier work
[7] = tested on: CTX-injured tibialis anterior (TA) muscles of hypoxia-exposed mice; assay: Muscle regeneration after CTX injury under eubaric hypoxia; assay type: in vivo, wildtype B6 mice; settings: hypoxia 17% pO2, 10 dpi
Experimental: To gain insights on hypoxic effect on muscle regeneration, wildtype B6 mice (12-week old) were treated with eubaric hypoxia (17% pO2, 1 atm) in hypoxia chamber for 4 weeks and injected with CTX (0.5 nmol, 100 μL) into tibialis anterior (TA) muscles at day 18. Mice under normoxia (21% pO2, 1 atm) were injured with CTX as a control.
To assess if HIF-2α inhibition benefits regeneration under experimental hypoxia, HIF-2α inhibitor HIF-C2 (5 mg in 0.1% DMSO) or vehicle (0.1% DMSO) were intramuscularly administered to the injured muscles at days 2, 3 and 4 post-injury (2-4 dpi).

[8] = tested on: C2Cl2 myoblasts; assay: RT-qPCR of HIF-2α and Spry1 mRNA in C2Cl2 myoblasts; assay type: cell-based
Experimental: C2Cl2 myoblasts were transfected with pCMEGIP-HIF2αTM or control empty pCMEGIP plasmids using TransIT-X2 (Mirus Bio.). To differentiate C2Cl2 myoblasts, cells were cultured to reach 80% confluency and further cultured in DMEM (4.5 g/L glucose) medium supplemented with 2% horse serum for 5 days.
For measure relative expression levels, total RNA was isolated from C2Cl2 myoblasts using TRIzol or from FACS sorted satellite cells using PicoPure RNA Isolation Kit (Thermo Fisher Scientific). 1 μg total RNA from C2Cl2 myoblasts (or 0.2 μg total RNA from satellite cells) was used in 20 μl reverse transcription reactions (Maxima; Life technologies) and diluted into 100 μl. 2 μl diluted cDNA was used in 8 μl quantitative PCR reactions (SsoAdvanced™ Universal SYBR Green mix; Bio-Rad) on a BioRad CFX384™ Real-Time PCR Detection System. Cq-values were determined and expression values were calculated by BioRad CFX Manager™ Software. Relative expression values were normalized to inner reference genes Rps18 and Tbp of each biological sample. The following primers were used for quantifying expression levels: […]

[9] = tested on: clear cell renal cell carcinoma (ccRCC); settings: patients with ccRCC; cited from earlier work
[10] = tested on: mouse xenograft models; settings: cited from earlier work
[11] = tested on: HIF-2α target genes in tumor cells; settings: cited from earlier work
[12] = tested on: HIF-2α; settings: cited from earlier work
[13] = tested on: HIF-1a; settings: cited from earlier work
[14] = shRNA expression in C2Cl2 myoblasts

Chain of HIF-1 (Q16665 whole entry, canonical isoform): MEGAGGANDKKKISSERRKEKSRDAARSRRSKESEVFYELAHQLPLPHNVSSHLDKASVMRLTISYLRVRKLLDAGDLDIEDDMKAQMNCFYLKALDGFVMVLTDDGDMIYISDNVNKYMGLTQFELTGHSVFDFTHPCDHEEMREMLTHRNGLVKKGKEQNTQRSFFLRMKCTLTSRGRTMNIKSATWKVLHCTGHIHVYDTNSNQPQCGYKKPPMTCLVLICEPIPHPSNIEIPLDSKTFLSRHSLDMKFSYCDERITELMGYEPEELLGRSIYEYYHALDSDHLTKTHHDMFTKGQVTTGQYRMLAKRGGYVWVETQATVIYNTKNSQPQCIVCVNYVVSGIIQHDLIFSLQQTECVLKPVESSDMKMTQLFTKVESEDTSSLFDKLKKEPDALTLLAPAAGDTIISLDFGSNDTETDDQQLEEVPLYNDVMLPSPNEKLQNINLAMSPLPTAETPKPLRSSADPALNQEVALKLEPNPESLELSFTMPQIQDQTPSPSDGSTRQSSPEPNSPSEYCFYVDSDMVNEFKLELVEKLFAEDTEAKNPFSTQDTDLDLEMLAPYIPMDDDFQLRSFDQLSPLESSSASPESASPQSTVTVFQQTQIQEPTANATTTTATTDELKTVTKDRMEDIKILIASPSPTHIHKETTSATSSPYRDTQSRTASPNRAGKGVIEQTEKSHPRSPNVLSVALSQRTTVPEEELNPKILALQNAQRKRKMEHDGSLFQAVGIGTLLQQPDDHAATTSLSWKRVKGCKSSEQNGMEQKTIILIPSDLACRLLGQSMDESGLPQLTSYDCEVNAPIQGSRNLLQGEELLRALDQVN
Chain of HIF-2α PAS-B (Q99814 240-350 limits assumed): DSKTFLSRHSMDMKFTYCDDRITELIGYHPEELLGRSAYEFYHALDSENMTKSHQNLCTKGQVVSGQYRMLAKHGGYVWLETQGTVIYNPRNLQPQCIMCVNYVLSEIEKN
Chain of full-length HIF-2 transcription factor (Q99814 whole entry): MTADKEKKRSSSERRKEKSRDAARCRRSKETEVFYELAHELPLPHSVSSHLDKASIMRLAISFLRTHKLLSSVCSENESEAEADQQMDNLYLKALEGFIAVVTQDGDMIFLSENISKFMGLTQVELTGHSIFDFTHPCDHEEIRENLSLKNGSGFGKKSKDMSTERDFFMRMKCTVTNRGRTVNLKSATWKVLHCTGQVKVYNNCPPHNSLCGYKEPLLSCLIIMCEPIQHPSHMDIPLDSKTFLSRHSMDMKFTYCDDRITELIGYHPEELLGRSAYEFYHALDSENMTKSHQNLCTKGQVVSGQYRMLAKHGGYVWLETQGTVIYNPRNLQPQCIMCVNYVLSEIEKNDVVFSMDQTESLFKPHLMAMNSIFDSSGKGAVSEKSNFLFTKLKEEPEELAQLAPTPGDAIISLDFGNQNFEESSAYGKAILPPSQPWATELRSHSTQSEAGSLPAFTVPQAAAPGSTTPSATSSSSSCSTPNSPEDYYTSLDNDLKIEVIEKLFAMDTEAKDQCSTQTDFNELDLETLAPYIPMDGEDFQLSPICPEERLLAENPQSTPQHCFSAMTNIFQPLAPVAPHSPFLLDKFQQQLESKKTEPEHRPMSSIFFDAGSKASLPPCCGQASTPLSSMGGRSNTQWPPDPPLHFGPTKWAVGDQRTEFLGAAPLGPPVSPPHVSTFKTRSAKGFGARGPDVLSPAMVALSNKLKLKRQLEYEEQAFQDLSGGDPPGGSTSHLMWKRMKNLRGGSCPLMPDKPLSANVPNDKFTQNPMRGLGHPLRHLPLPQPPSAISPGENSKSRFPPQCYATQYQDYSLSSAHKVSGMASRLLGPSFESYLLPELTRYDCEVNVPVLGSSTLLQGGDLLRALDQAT

## O=[N+]([O-])c1c(Nc2cc(F)cc(Cl)c2)ccc2nonc12 [HIF-C2, N-(3-chloro-5-fluorophenyl)-4-nitrobenzo[c][1,2,5]oxadiazol-5-amine]
[1]
  activity to antagonize HIF-1: no activity to antagonize HIF-1
[2]
  HIF-2 DNA binding and transcription of its target genes: disrupting HIF-2 DNA binding and inhibiting the transcription of its target genes
[3]
  Kd: 81 nM
[4]; 3 dpi, vs 1% DMSO carrier
  Pax7+/EdU+ activated SCs per TA muscle section: increased
[4]; 7 dpi
  expression of HIF-2α in treated muscle: reduced
  expression of MyoD in treated muscle: reduced
  expression of eMyHC in treated muscle: reduced
  myofiber regeneration: improved
  total number of Pax7+ SCs per TA muscle section: increased
[4]; 7 dpi, n=6, peroneal nerve stimulation
  recovery of the maximal torque measured before injury: ~53%
[4]; 10 dpi
  total number of Pax7+ SCs per TA muscle section: increased
[4]; 30 dpi
  fibrosis (Sirius red staining for collagen): no overt sign of fibrosis
  myofiber cross sectional areas: increased
  numbers of Pax7+ SCs vs control muscles: comparable numbers
[4]; 30 dpi, n=3
  recovery of the strength (maximal torque): ~90%
[4]; intramuscular, 5 mg/injection/day, 3 consecutive days
  HIF-2α expression in muscle (including SCs): reduced HIF-2α expression
[5]; female mTR/Mdx mice
  total number of satellite cells (Pax7+pos) per muscle section: elevated
[5]; female mTR/Mdx mice, 28 days post-treatment, vs control
  number of proliferative satellite cells (Pax7+pos/Ki67+pos): comparable
[5]; male mTR/Mdx mice
  number of centralized nuclei in a myofiber: increased
  number of proliferative satellite cells (Pax7+pos/Ki67+pos): significantly increased
  total number of satellite cells (Pax7+pos) per muscle section: significantly increased
[5]; males and females, 28 days after first treatment
  myofiber cross-sectional area (CSA), ImageJ analysis: increase of myofiber caliber
[5]; males and females, 28 days after first treatment, 5 mg/injection x3, vs vehicle
  myofiber size (H&E staining): larger myofibers
[5]; vs vehicle-treated control muscles
  amount of collagen in endomysial space (Masson's trichrome staining): remarkably reduced
[6]
  heterodimerization of the full-length HIF-2 transcription factor: disrupts heterodimerization
[7]
  muscle regeneration under hypoxia: improved
  percentage of Ki67+ proliferating satellite cells: improved satellite cell proliferation under hypoxia to a level better than the normoxic condition
[7]; 5 mg i.m. at 2-4 dpi, vs vehicle
  MuSC (Pax7+) number: increased
[8]; HIF-c2 100 μM, C2Cl2 myoblasts
  HIF-2α mRNA level: unchanged
  Spry1 mRNA level: decreased; also recorded: reduced

## CS(=O)(=O)c1ccc(Oc2cc(F)cc(C#N)c2)c2c1[C@H](O)C(F)(F)C2 [PT2385]
[9]
  clinical activity: demonstrated clinical activity

## CS(=O)(=O)c1ccc(Oc2cc(F)cc(C#N)c2)c2c1[C@H](O)[C@H](F)[C@@H]2F [PT2977]
[10]
  tumor regression: induced regression
[11]
  expression of HIF-2α target genes: inhibited

## O=C(CCCCCCC(=O)Nc1ccccc1)NO [Vorinostat]
[12]
  reversal of epigenetic silencing of HIF-2α: can reverse the epigenetic silencing of HIF-2α
[13]
  reversal of epigenetic silencing of HIF-1a: not HIF-1a

B1: HIF-2α shRNA #1: For HIF-2α knockdown, HIF-2α shRNA oligos ... cloned into pMSCV-P2GM retrovirus plasmids; HIF-2α shRNA #1 oligo (SEQ ID NO: 18) (nucleic acid)
DNA: TGCTGTTGACAGTGAGCGAACACTTGATGTGGAAACGTATTAGTGAAGCCACAGATGTAATACGTTTCCACATCAAGTGTGTGCCTACTGCCTCGGA
[8]; [14]
  HIF-2α mRNA level: reduced
  Spry1 mRNA level: reduced
